From patent US10005818B2, “Derivative peptide compounds and methods of use” (REALTA HOLDINGS, LLC, priority 2010, dated 2018)
Square brackets hold non-standard residues; d marks the D form. Peptide text beside a SMILES is read from it. Sar = CNCC(=O)O

How the values were obtained:
[1] = tested on: complement activation in factor B-depleted human sera; assay type: biochemical
Method: Peptides were diluted to 0.77 mM in factor B-depleted human sera (Complement Technologies, Inc.) and incubated for 1 hour at 37° C. These peptides were then diluted with GVBS^++ to equal 2.5/s serum, of which 0.25 ml was combined with 0.4 ml of GVBS^++ and 0.1 ml of sensitized sheep red blood cells (RBCs) and again incubated for 1 hour at 37° C. The procedure was stopped by the addition of 4.0 ml of GVBS^−−, centrifuged for 5 minutes at 1,620×g, and the absorbance of the supernatants was read at 412 nm in a spectrophotometer. The percent lysis of each sample was standardized to that of the serum only control.
The final concentration of peptide in factor B-depleted serum was 0.77 mM. Each peptide was evaluated in triplicate and the mean values are reported. […] In the hemolytic assay, soluble peptides are standardized to water and insoluble peptides standardized to DMSO.
Polar Assortant peptides were serially diluted in undiluted factor B-depleted human sera (Complement Technologies, Inc.) and incubated for 1 hour at 37° C. Water, GVBS^++ and DMSO were included as controls. These peptides were then diluted with GVBS^++ to equal 2.5/s serum, of which 0.25 ml was combined with 0.4 ml of GVBS^++ and 0.1 ml of sensitized sheep red blood cells (RBCs) and again incubated for 1 hour at 37° C. The procedure was stopped by the addition of 4.0 ml of GVBS^−−, centrifuged for 5 minutes at 1,620×g, and the absorbance of the supernatants was read at 412 nm in a spectrophotometer. The percent lysis of each sample was standardized to that of the serum only control.
The final concentration of peptide in factor B-depleted serum was 0.77 mM. […] In the hemolytic assay, soluble peptides were standardized to water and insoluble peptides standardized to DMSO.
The final concentration of peptide in factor B-depleted serum was 0.77 mM. […] In the hemolytic assay, soluble peptides are standardized to water and insoluble peptides standardized to DMSO.

[2] = Solubility in water; assay type: physicochemical
[3] = Table 7, PEGylated and sarcosine/alanine substitution peptides

Row | Compound | Hemolysis (%) [1] [%] | Solubility in water [2, 3] | solubility in water / aqueous solutions [2] | Solubility in water ([2]; Table 5, sarcosine substitution peptides) | inhibition of complement activity in hemolytic assay ([1]; factor B depleted serum)
1 | CC[C@H](C)[C@H](N)C(=O)N[C@@H](C)C(=O)N[C@@H](CC(C)C)C(=O)N[C@H](C(=O)N[C@@H](CC(C)C)C(=O)N(C)CC(=O)N1CCC[C@H]1C(=O)N[C@H](C(=O)N[C@@H](CS)C(=O)N[C@@H](CS)C(=O)N[C@@H](CCC(N)=O)C(=O)N[C@@H](CCC(=O)O)C(=O)N[C@@H](CCCNC(=N)N)C(=O)N[C@@H](C)C(=O)N[C@@H](C)C(=O)NCCOCCOCCOCCOCCOCCOCCOCCOCCOCCOCCOCCOCCOCCOCCOCCOCCOCCOCCOCCOCCOCCOCCOCCOCCC(=O)O)[C@@H](C)CC)[C@@H](C)CC [PA-E6Sar-dPEG24] | 12.88 | Yes |  |  | 
2 | CC[C@H](C)[C@H](N)C(=O)N[C@@H](C)C(=O)N[C@@H](CC(C)C)C(=O)N[C@H](C(=O)N[C@@H](CC(C)C)C(=O)N[C@@H](CCC(=O)O)C(=O)N1CCC[C@H]1C(=O)N[C@H](C(=O)N(C)CC(=O)N[C@@H](CCC(N)=O)C(=O)N[C@@H](CCC(=O)O)C(=O)N[C@@H](CCCNC(=N)N)C(=O)N[C@@H](C)C(=O)N[C@@H](C)C(=O)O)[C@@H](C)CC)[C@@H](C)CC [PA-C9SarD10] (H-IALILEPI[Sar]QERAA-OH) | 100.52 | Yes |  |  | 
3 | CC[C@H](C)[C@H](N)C(=O)N[C@@H](C)C(=O)N[C@@H](CC(C)C)C(=O)N[C@H](C(=O)N[C@@H](CC(C)C)C(=O)N[C@@H](CCC(=O)O)C(=O)N1CCC[C@H]1C(=O)N[C@H](C(=O)N(C)CC(=O)N[C@@H](CS)C(=O)N[C@@H](CCC(N)=O)C(=O)N[C@@H](CCC(=O)O)C(=O)N[C@@H](CCCNC(=N)N)C(=O)N[C@@H](C)C(=O)N[C@@H](C)C(=O)O)[C@@H](C)CC)[C@@H](C)CC [PA-C9Sar] (H-IALILEPI[Sar]CQERAA-OH; N-terminus and C-terminus assumed) | 5.63 |  | water soluble | Yes | 
4 | CC[C@H](C)[C@H](N)C(=O)N[C@@H](C)C(=O)N[C@@H](CC(C)C)C(=O)N[C@H](C(=O)N[C@@H](CC(C)C)C(=O)N[C@@H](CCC(=O)O)C(=O)N1CCC[C@H]1C(=O)N[C@H](C(=O)N[C@@H](CS)C(=O)N[C@@H](CS)C(=O)N(C)CC(=O)N[C@@H](CCC(=O)O)C(=O)N[C@@H](CCCNC(=N)N)C(=O)N[C@@H](C)C(=O)N[C@@H](C)C(=O)NCCOCCOCCOCCOCCOCCOCCOCCOCCOCCOCCOCCOCCOCCOCCOCCOCCOCCOCCOCCOCCOCCOCCOCCOCCC(=O)O)[C@@H](C)CC)[C@@H](C)CC [PA-Q11Sar-dPEG24] | 12.04 | Yes |  |  | 
5 | CC[C@H](C)[C@H](N)C(=O)N[C@@H](C)C(=O)N[C@@H](CC(C)C)C(=O)N[C@H](C(=O)N[C@@H](CC(C)C)C(=O)N[C@@H](CCC(=O)O)C(=O)N1CCC[C@H]1C(=O)N[C@H](C(=O)N[C@@H](CS)C(=O)N[C@@H](CS)C(=O)N[C@@H](CCC(N)=O)C(=O)N[C@@H](CCC(=O)O)C(=O)N(C)CC(=O)N[C@@H](C)C(=O)N[C@@H](C)C(=O)NCCOCCOCCOCCOCCOCCOCCOCCOCCOCCOCCOCCOCCOCCOCCOCCOCCOCCOCCOCCOCCOCCOCCOCCOCCC(=O)O)[C@@H](C)CC)[C@@H](C)CC [PA-R13Sar-dPEG24] | 4.26 | Yes |  |  | 
6 | CC[C@H](C)[C@H](N)C(=O)N[C@@H](C)C(=O)N[C@@H](CC(C)C)C(=O)N[C@H](C(=O)N[C@@H](CC(C)C)C(=O)N[C@@H](CCC(=O)O)C(=O)N(C)CC(=O)N[C@H](C(=O)N(C)CC(=O)N[C@@H](CS)C(=O)N[C@@H](CCC(N)=O)C(=O)N[C@@H](CCC(=O)O)C(=O)N[C@@H](CCCNC(=N)N)C(=O)N[C@@H](C)C(=O)N[C@@H](C)C(=O)O)[C@@H](C)CC)[C@@H](C)CC [PA-P7SarC9Sar, IALILE(Sar)I(Sar)CQERAA] (H-IALILE[Sar]I[Sar]CQERAA-OH) | 82.72 | Yes |  |  | 
7 | dPEG24-IALILEPICCQERAA-dPEG24 (cysteine pairing not given here) [dPEG24-PA-dPEG24] |  |  | soluble in water |  | varying degrees of complement inhibition
